The values below come from patent publication US7816522B2, “Triazolone derivatives” (Eisai Co., Ltd., priority 2006, dated 2010).

Broadly, the IC50 is the concentration needed to halve the response being measured. Lower therefore signals higher potency.

This test has as its target T1, human clotting factor VIIa (Homo sapiens, UniProt P08709).
T1 construct: a human clotting factor VIIa (hereinafter, “Factor VIIa”) purified sample; purchased Enzyme Research Laboratories HFVIIa
In words: Inhibitory activity against clotting factor VIIa (chromogenic substrate Spectrozyme FVIIa, TF/Factor VIIa enzyme solution). The test is classed as biochemical. To be noted: human Factor VIIa 5 nmol/L with human TF 10 nmol/L, room temperature 40 minutes, 405 nm. As for the experimental part: [Inhibitory Activity Against Clotting Factor VIIa]
Dimethylsulfoxide (DMSO) solutions were prepared with compounds of the invention at concentration of 10 mmol/L (10 mmol/L compound solutions).
One packet of tris-hydroxymethylaminomethane-preset (hereinafter referred to as “Tris preset”) (Product of Sigma Corp., Catalog No. T8293), 8.8 g of sodium chloride (NaCl) and 1 g of bovine serum albumin (hereinafter abbreviated as “BSA”) were dissolved in 1 L of water to prepare a Tris-BSA buffer (100 mmol/L Tris, 0.15 mol/L NaCl, 0.1% BSA, pH 7.4).
This Tris-BSA buffer (180 μL) was added to the aforementioned 10 mmol/L compound solution (20 μL). A 10-fold dilution series was prepared for this mixture using the aforementioned Tris-BSA buffer, and solutions with the compound at concentrations of 1.0 mmol/L, 100, 10, 1, 0.1, 0.01 and 0.001 μmol/L were prepared (1.0 mmol-0.001 μmol/L compound solutions). As a control, a solution was prepared by 10-fold dilution of DMSO with the Tris-BSA buffer (hereinafter referred to as “control 10% solution”).
After dissolving one packet of Tris preset, NaCl (8.8 g) and BSA (1 g) in water (about 900 mL), there were added 1 mol/L aqueous calcium chloride (CaCl2) (15 mL) and 1 mg/mL aqueous cephalin (30 mL), and the total volume was brought to 1 L by adding water. To this solution there was added a human tissue factor (hereinafter, “TF”) sample (product of Calbiochem, Catalog No. 612151) (450 μg) to a TF sample concentration of 10 nmol/L, and then a human clotting factor VIIa (hereinafter, “Factor VIIa”) purified sample (product of Enzyme Research Laboratories, Catalog No. HFVIIa) (250 μg) was added to a Factor VIIa purified sample concentration of 5 nmol/L, to prepare an enzyme solution (100 mmol/L Tris-HCl, 0.15 mol/L NaCl, 15 mmol/L CaCl2, 30 μg/mL cephalin, 1 mg/mL BSA, 10 nmol/L TF, 5 nmol/L Factor VIIa).
To 110 μL of this enzyme solution there was added 15 μL of each of the 1.0 mmol-0.001 μmol/L compound solutions, and then 25 μL of a 1.0 mmol/L synthetic chromogenic substrate solution (Spectrozyme FVIIa, product of American Diagnostica, Catalog No. 217L) was added and the mixture was allowed to stand at room temperature for 40 minutes. Next, the amount of 4-nitroanilide released into the solution was quantitated by spectrophotometry (405 nm).
A control measurement was conducted in the same manner, using the control 10% solution instead of the compound solution.
This measurement yielded the enzyme reaction inhibition in the presence of 100 μmol/L to 0.1 nmol/L of each compound of the invention.
The enzyme reaction inhibition at each compound concentration was subjected to non-linear regression analysis, and the IC50 value for inhibitory activity of each compound against clotting factor VIIa was calculated.

T1 sequence (P08709 213-466 limits assumed): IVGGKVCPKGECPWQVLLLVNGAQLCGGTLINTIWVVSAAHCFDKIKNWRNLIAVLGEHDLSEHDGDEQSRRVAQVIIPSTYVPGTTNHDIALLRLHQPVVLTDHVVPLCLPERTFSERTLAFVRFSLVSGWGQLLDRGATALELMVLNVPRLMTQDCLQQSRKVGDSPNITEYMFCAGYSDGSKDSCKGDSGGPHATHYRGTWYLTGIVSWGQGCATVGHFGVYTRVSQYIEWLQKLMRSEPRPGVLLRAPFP
T1 sequence (P08709 61-212 limits assumed): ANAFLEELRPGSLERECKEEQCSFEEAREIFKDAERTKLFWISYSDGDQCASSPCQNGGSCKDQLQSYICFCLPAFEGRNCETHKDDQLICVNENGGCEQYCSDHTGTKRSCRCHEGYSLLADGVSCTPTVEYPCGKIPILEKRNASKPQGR
T1 sequence (P13726 33-295 partner): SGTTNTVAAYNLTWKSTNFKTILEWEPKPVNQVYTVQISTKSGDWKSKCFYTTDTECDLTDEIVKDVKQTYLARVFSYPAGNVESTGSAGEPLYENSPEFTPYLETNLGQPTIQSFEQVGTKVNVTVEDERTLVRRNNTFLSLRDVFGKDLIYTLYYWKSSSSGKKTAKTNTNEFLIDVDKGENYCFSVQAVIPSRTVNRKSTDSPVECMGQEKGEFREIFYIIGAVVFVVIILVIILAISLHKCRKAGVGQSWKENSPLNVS

`C=Cc1cc(OCCO)cc(C(Nc2ccc(C(=N)N)cc2)c2nn(-c3ncccn3)c(=O)[nH]2)c1` (racemic) [Example 46, (R) and (S)-4-({[3-(2-hydroxyethoxy)-5-vinylphenyl]-(5-oxo-1-pyrimidin-2-yl-4,5-dihydro-1H-[1,2,4]triazol-3-yl)methyl}amino)benzamidine acetate] returned a 50% inhibitory concentration (IC50) of 3.8 nM.
The result for `C=Cc1cc(O)cc(C(Nc2ccc(C(=N)N)cc2)c2nn(-c3ncccn3)c(=O)[nH]2)c1` (racemic) [Example 47, 4-{[(3-hydroxy-5-vinylphenyl)-(5-oxo-1-pyrimidin-2-yl-4,5-dihydro-1H-[1,2,4]triazol-3-yl)methyl]amino}benzamidine] reads 8.9 nM.
The result for `COc1cc(OCCF)c(F)c(C(Nc2ccc(C(=N)N)cc2)c2nn(-c3cccnc3N)c(=O)[nH]2)c1` (racemic) [Example 50, (R) and (S)-4-({[1-(2-aminopyridin-3-yl)-5-oxo-4,5-dihydro-1H-[1,2,4]triazol-3-yl]-[2-fluoro-3-(2-fluoroethoxy)-5-methoxyphenyl]methyl}amino)benzamidine diacetate] reads 3.2 nM.
The same measure for `COc1cc(C(Nc2ccc(C(=N)N)cc2)c2nn(-c3ncccc3N)c(=O)[nH]2)c(F)c2c1OCC2` (racemic) [Example 52, (R) and (S)-4-({[1-(3-aminopyridin-2-yl)-5-oxo-4,5-dihydro-1H-[1,2,4]triazol-3-yl]-(4-fluoro-7-methoxy-2,3-dihydrobenzofuran-5-yl)methyl}amino)benzamidine diacetate]: 5.2 nM; for `COc1cc(C(Nc2ccc(C(=N)N)cc2)c2nn(-c3ncccn3)c(=O)[nH]2)ccc1OCF` (racemic) [Example 53, (R) and (S)-4-{[(4-fluoromethoxy-3-methoxyphenyl)-(5-oxo-1-pyrimidin-2-yl-4,5-dihydro-1H-[1,2,4]triazol-3-yl)methyl]amino}benzamidine acetate]: 10.6 nM; for `COc1cc(C(Nc2ccc(C(=N)N)cc2)c2nn(-c3ncccn3)c(=O)[nH]2)cc(OC)n1` (racemic) [Example 54, (R) and (S)-4-{[(2,6-dimethoxypyridin-4-yl)-(5-oxo-1-pyrimidin-2-yl-4,5-dihydro-1H-[1,2,4]triazol-3-yl)methyl]amino}benzamidine acetate]: 18.7 nM.
Regarding `COc1cc(C(Nc2ccc(C(=N)N)cc2)c2nn(-c3ncccc3N)c(=O)[nH]2)cc(OC)n1` (racemic) [Example 55, (R) and (S)-4-({[1-(3-aminopyridin-2-yl)-5-oxo-4,5-dihydro-1H-[1,2,4]triazol-3-yl]-(2,6-dimethoxypyridin-4-yl)methyl}amino)benzamidine acetate], inhibition was half-maximal at 10.3 nM (IC50).
In turn, `COc1cc(C(Nc2ccc(C(=N)N)cc2)c2nn(-c3ncccc3F)c(=O)[nH]2)cc(OC)n1` (racemic) [Example 56, (R) and (S)-4-{[(2,6-dimethoxypyridin-4-yl)-[1-(3-fluoropyridin-2-yl)-5-oxo-4,5-dihydro-1H-[1,2,4]triazol-3-yl)methyl]amino}benzamidine acetate] registered an IC50 of 11.2 nM. The IC50 values of the last two compounds are within 1.5-fold of each other.
In turn, `Cc1cc(O[C@H]2CCOC2)cc(C(Nc2ccc(C(=N)N)cc2)c2nn(-c3ncccn3)c(=O)[nH]2)c1` (mixture of isomers) [Example 58, 4-[((R) and (S)-{3-methyl-5-[(S)-(tetrahydrofuran-3-yl)oxy]phenyl}-(5-oxo-1-pyrimidin-2-yl-4,5-dihydro-1H-[1,2,4]triazol-3-yl)methyl)amino]benzamidine acetate] came in with an IC50 of 3.4 nM.
`Cc1cc(O[C@@H]2CCOC2)cc(C(Nc2ccc(C(=N)N)cc2)c2nn(-c3ncccn3)c(=O)[nH]2)c1` (mixture of isomers) [Example 59, 4-[((R) and (S)-{3-methyl-5-[(R)-(tetrahydrofuran-3-yl)oxy]phenyl}-(5-oxo-1-pyrimidin-2-yl-4,5-dihydro-1H-[1,2,4]triazol-3-yl)methyl)amino]benzamidine acetate] showed an IC50 of 4.5 nM.
`Cc1cc(OC2CCOCC2)cc(C(Nc2ccc(C(=N)N)cc2)c2nn(-c3ncccn3)c(=O)[nH]2)c1` (racemic) [Example 60, (R) and (S)-4-({[3-methyl-5-(tetrahydropyran-4-yloxy)phenyl]-(5-oxo-1-pyrimidin-2-yl-4,5-dihydro-1H-[1,2,4]triazol-3-yl)methyl}amino)benzamidine acetate] returned an IC50 of 3.7 nM. The IC50 values of the last two compounds are within 1.5-fold of each other.
The same measure for `COc1cc(OCCF)cc(C(Nc2ccc(C(=N)N)cc2)c2nn(-c3ncccn3)c(=O)[nH]2)c1` (racemic) [Example 61, (R) and (S)-4-({[3-(2-fluoroethoxy)-5-methoxyphenyl]-(5-oxo-1-pyrimidin-2-yl-4,5-dihydro-1H-[1,2,4]triazol-3-yl)methyl}amino)benzamidine acetate]: 5.6 nM.
The same measure for `COc1cc(OCC(=O)N(C)C)cc(C(Nc2ccc(C(=N)N)cc2)c2nn(-c3ncccn3)c(=O)[nH]2)c1` (racemic) [Example 62, (R) and (S)-2-{3-[(4-carbamimidoylphenylamino)-(5-oxo-1-pyrimidin-2-yl-4,5-dihydro-1H-[1,2,4]triazol-3-yl)methyl]-5-methoxyphenoxy}-N,N-dimethylacetamide acetate]: 24.4 nM.
The result for `COc1cc(OC2CCOCC2)cc(C(Nc2ccc(C(=N)N)cc2)c2nn(-c3ncccn3)c(=O)[nH]2)c1` (racemic) [Example 63, (R) and (S)-4-({[3-methoxy-5-(tetrahydropyran-4-yloxy)phenyl]-(5-oxo-1-pyrimidin-2-yl-4,5-dihydro-1H-[1,2,4]triazol-3-yl)methyl}amino)benzamidine acetate] reads 3.9 nM; that for `COc1cc(OCCF)cc(C(Nc2ccc(C(=N)N)cc2)c2nn(-c3cccnn3)c(=O)[nH]2)c1` (racemic) [Example 64, (R) and (S)-4-({[3-(2-fluoroethoxy)-5-methoxyphenyl]-(5-oxo-1-pyridazin-3-yl-4,5-dihydro-1H-[1,2,4]triazol-3-yl)methyl}amino)benzamidine acetate], 4.2 nM.
On to `CCOc1cc(OC)cc(C(Nc2ccc(C(=N)N)cc2)c2nn(-c3cccnn3)c(=O)[nH]2)c1` (racemic) [Example 65, (R) and (S)-4-{[(3-ethoxy-5-methoxyphenyl)-(5-oxo-1-pyridazin-3-yl-4,5-dihydro-1H-[1,2,4]triazol-3-yl)methyl]amino}benzamidine acetate], for which the IC50 was 5.3 nM.
Turning to `COc1cc(OC)c(F)c(C(Nc2ccc(C(=N)N)cc2)c2nn(-c3ncccn3)c(=O)[nH]2)c1` (racemic) [Example 66, (R) and (S)-4-{[(2-fluoro-3,5-dimethoxyphenyl)-(5-oxo-1-pyrimidin-2-yl-4,5-dihydro-1H-[1,2,4]triazol-3-yl)methyl]amino}benzamidine acetate], the IC50 turned out to be 7.9 nM.
For the compound `COc1cc(C(Nc2ccc(C(=N)N)cc2)c2nn(-c3ncccn3)c(=O)[nH]2)c(F)c(OC)c1OC` (racemic) [Example 67, (R) and (S)-4-{[(2-fluoro-3,4,5-trimethoxyphenyl)-(5-oxo-1-pyrimidin-2-yl-4,5-dihydro-1H-[1,2,4]triazol-3-yl)methyl]amino}benzamidine acetate], the IC50 came to 4.5 nM. Compared with the last compound, the IC50 is about 1.8-fold lower.
The same measure for `CCOc1cc(OCCF)c(F)c(C(Nc2ccc(C(=N)N)cc2)c2nn(-c3ncccn3)c(=O)[nH]2)c1` (racemic) [Example 68, (R) and (S)-4-({[2-fluoro-3-(2-fluoroethoxy)-5-ethoxyphenyl]-(5-oxo-1-pyrimidin-2-yl-4,5-dihydro-1H-[1,2,4]triazol-3-yl)methyl}amino)benzamidine acetate]: 6.7 nM; for `CCOc1cc(OC)c(F)c(C(Nc2ccc(C(=N)N)cc2)c2nn(-c3ncccn3)c(=O)[nH]2)c1` (racemic) [Example 69, (R) and (S)-4-{[(5-ethoxy-2-fluoro-3-methoxyphenyl)-(5-oxo-1-pyrimidin-2-yl-4,5-dihydro-1H-[1,2,4]triazol-3-yl)methyl]amino}benzamidine acetate]: 15.1 nM.
